# Measured values as given in ChEMBL document CHEMBL1148941, “A new glucosyl feruloyl quinic acid as a potential marker for roots and rhizomes of goldenseal, Hydrastis canadensis” (2004).
# Tested on: Staphylococcus aureus
# Assay: Antimicrobial activity against methicillin-resistant Staphylococcus aureus 1126 after 24 hrs
# Assay type: functional
row,Compound,MIC [µg/mL]
1,COc1cc(/C=C/C(=O)O[C@@H]2C[C@](O)(C(=O)O)C[C@@H](O)[C@H]2O)ccc1O[C@@H]1O[C@H](CO)[C@@H](O)[C@H](O)[C@H]1O,> 1000
2,COc1ccc2cc3[n+](cc2c1OC)CCc1cc2c(cc1-3)OCO2.[Cl-] [BERBERINE CHLORIDE],60
